The source of these data is patent EP2045247B1, “Compounds for the inhibition of histone deacetylase” (NatureWise Biotech & Medicals Corporation, priority 2007, dated 2009).

For the assay, the system named is acetylated histone H4. The assay can be described thus: Western blotting of hyperacetylated histone H4 in C6 glioma cell lysates. The format is cell-based, rat. Particulars: C6 glioma cells. As to the method: Accumulation of hyperacetylated histone H4 was analyzed in the cell lysates by using Western Blotting and the antibody directed against acetylated histone H4 (Upstate). The C6 glioma cells were seeded at a density of 1×10^6 per 10cm culture dish. After 24 hours, the cells were treated with 10 µg/mL of NBM-HD-1 or 4mM sodium butyrate for several hours. The whole-cell lysates were prepared by using denaturing SDS sample buffer and then separated on 15% SDS-polyacrylamide gels. […] The amount of acetylated histones was hardly detectable in untreated C6 glioma cells. The amount of acetylated histone H4 of the cells treated with 4mM sodium butyrate for 2 hours increased. Sodium butyrate was then removed from the culture medium. After 6 hours, the amount of acetylated histone H4 decreased. The accumulation of acetylated histone H4 increased in the cells treated with NBM-HD-1 for 2 hours. […] The highest histone acetylation appeared at 6 hours after the compound had been removed. […] Because NBM-HD-1 is more hydrophobic than sodium butyrate, NBM-HD-1 can be retained in the cells longer than sodium butyrate and continuously induce the acetylation of histone H4.

As to `COc1cc2c(c(OC)c1CCC(C)(C)O)C(=O)C[C@@H](c1ccc(OC)c(OC)c1C/C=C(\C)CCCC(C)(C)O)O2` [NBM-HD-1], the “accumulation of acetylated histone H4, treated for 2 hours” value (10 µg/mL NBM-HD-1 or 4mM sodium butyrate, 2 hours (Fig. 5)) is recorded as “increased”. Further, the “time of highest histone acetylation after the compound had been removed” value (10 µg/mL, 2 hours treatment, then removal) is 6 h. In addition, the “amount of acetylated histone H4 after removal of the compound from the culture medium” value (up to 6 hours after removal (Fig. 5)) is “increased over time”.
